System: yeast genes (expressed mRNA)
Experiment: DNA chip measurement of expressed mRNA of yeast genes after culture with a toxic chemical substance
Format: cell-based, Saccharomyces cerevisiae S288C
Conditions: for level of expressed mRNA in the presence of chemical substance / level in the absence of chemical substance: cultured two hours with the chemical substance; for The level of expressed mRNA in the presence of chemical substance/The level of expressed mRNA in the absence of chemical substance: cultured two hours with substance
Procedure, shortened: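 S. cerevisiae S288C grown at 25 °C in YPD, exposed in log phase for 2 h to a toxicant at growth-inhibiting, non-lethal concentration. Cy3/Cy5-labelled cDNA from poly(A) mRNA hybridized to whole-genome chip at 65 °C >12 h. Ratio to untreated control, ≥2 significant.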

[Cl][Pb][Cl] [(4), PbCl2]
level of expressed mRNA in the presence of chemical substance / level in the absence of chemical substance (yeast gene YNL058C): 1.7 | level of expressed mRNA in the presence of chemical substance / level in the absence of chemical substance (yeast gene YNL063W): 1.4 | The level of expressed mRNA in the presence of chemical substance/The level of expressed mRNA in the absence of chemical substance (yeast gene YNL074C): 1.2 | The level of expressed mRNA in the presence of chemical substance/The level of expressed mRNA in the absence of chemical substance (yeast gene YNL092W): 1.8 | The level of expressed mRNA in the presence of chemical substance/The level of expressed mRNA in the absence of chemical substance (yeast gene YNL115C): 1.4 | The level of expressed mRNA in the presence of chemical substance/The level of expressed mRNA in the absence of chemical substance (yeast gene YNL156C): 1.3 | level of expressed mRNA in the presence of chemical substance / level in the absence of chemical substance (yeast gene YNL176C): 1.0 | level of expressed mRNA in the presence of chemical substance / level in the absence of chemical substance (yeast gene YNL194C): 15.2 | level of expressed mRNA in the presence of chemical substance / level in the absence of chemical substance (yeast gene YNL200C): 2.0 | The level of expressed mRNA in the presence of chemical substance/The level of expressed mRNA in the absence of chemical substance (yeast gene YNL234W): 1.8 | level of expressed mRNA in the presence of chemical substance / level in the absence of chemical substance (yeast gene YNL253W): 1.0 | level of expressed mRNA in the presence of chemical substance / level in the absence of chemical substance (yeast gene YNL276C): 0.3 | The level of expressed mRNA in the presence of chemical substance/The level of expressed mRNA in the absence of chemical substance (yeast gene YNL281W): 1.4 | The level of expressed mRNA in the presence of chemical substance/The level of expressed mRNA in the absence of chemical substance (yeast gene YNL305C): 1.4 | level of expressed mRNA in the presence of chemical substance / level in the absence of chemical substance (yeast gene YNR051C): 0.6 | The level of expressed mRNA in the presence of chemical substance/The level of expressed mRNA in the absence of chemical substance (yeast gene YNR068C): 2.6 | level of expressed mRNA in the presence of chemical substance / level in the absence of chemical substance (yeast gene YOL026C): 1.4 | The level of expressed mRNA in the presence of chemical substance/The level of expressed mRNA in the absence of chemical substance (yeast gene YOL032W): 1.3 | The level of expressed mRNA in the presence of chemical substance/The level of expressed mRNA in the absence of chemical substance (yeast gene YOL036W): 0.8 | The level of expressed mRNA in the presence of chemical substance/The level of expressed mRNA in the absence of chemical substance (yeast gene YOL047C): 2.5 | The level of expressed mRNA in the presence of chemical substance/The level of expressed mRNA in the absence of chemical substance (yeast gene YOL071W): 2.0 | The level of expressed mRNA in the presence of chemical substance/The level of expressed mRNA in the absence of chemical substance (yeast gene YOL082W): 2.1 | The level of expressed mRNA in the presence of chemical substance/The level of expressed mRNA in the absence of chemical substance (yeast gene YOL083W): 2.8 | The level of expressed mRNA in the presence of chemical substance/The level of expressed mRNA in the absence of chemical substance (yeast gene YOL117W): 1.4 | The level of expressed mRNA in the presence of chemical substance/The level of expressed mRNA in the absence of chemical substance (yeast gene YOL131W): 1.0 | The level of expressed mRNA in the presence of chemical substance/The level of expressed mRNA in the absence of chemical substance (yeast gene YOL150C): 0.9 | The level of expressed mRNA in the presence of chemical substance/The level of expressed mRNA in the absence of chemical substance (yeast gene YOL162W): 1.4 | The level of expressed mRNA in the presence of chemical substance/The level of expressed mRNA in the absence of chemical substance (yeast gene YOR019W): 4.7 | level of expressed mRNA in the presence of chemical substance / level in the absence of chemical substance (yeast gene YOR022C): 1.2 | level of expressed mRNA in the presence of chemical substance / level in the absence of chemical substance (yeast gene YOR087W): 1.3 | level of expressed mRNA in the presence of chemical substance / level in the absence of chemical substance (yeast gene YOR138C): 0.8 | The level of expressed mRNA in the presence of chemical substance/The level of expressed mRNA in the absence of chemical substance (yeast gene YOR197W): 1.4 | level of expressed mRNA in the presence of chemical substance / level in the absence of chemical substance (yeast gene YOR253W): 1.4 | level of expressed mRNA in the presence of chemical substance / level in the absence of chemical substance (yeast gene YOR267C): 0.9 | level of expressed mRNA in the presence of chemical substance / level in the absence of chemical substance (yeast gene YOR325W): 0.3 | level of expressed mRNA in the presence of chemical substance / level in the absence of chemical substance (yeast gene YPL005W): 1.0 | The level of expressed mRNA in the presence of chemical substance/The level of expressed mRNA in the absence of chemical substance (yeast gene YPL087W): 7.3 | level of expressed mRNA in the presence of chemical substance / level in the absence of chemical substance (yeast gene YPL150W): 0.9 | level of expressed mRNA in the presence of chemical substance / level in the absence of chemical substance (yeast gene YPL152W): 1.8 | level of expressed mRNA in the presence of chemical substance / level in the absence of chemical substance (yeast gene YPL168W): 1.4 | level of expressed mRNA in the presence of chemical substance / level in the absence of chemical substance (yeast gene YPL180W): 0.6 | level of expressed mRNA in the presence of chemical substance / level in the absence of chemical substance (yeast gene YPL188W): 1.0 | The level of expressed mRNA in the presence of chemical substance/The level of expressed mRNA in the absence of chemical substance (yeast gene YPL196W): 1.7 | The level of expressed mRNA in the presence of chemical substance/The level of expressed mRNA in the absence of chemical substance (yeast gene YPL206C): 1.9 | level of expressed mRNA in the presence of chemical substance / level in the absence of chemical substance (yeast gene YPL221W): 1.8 | The level of expressed mRNA in the presence of chemical substance/The level of expressed mRNA in the absence of chemical substance (yeast gene YPL222W): 1.3 | level of expressed mRNA in the presence of chemical substance / level in the absence of chemical substance (yeast gene YPL225W): 1.6 | The level of expressed mRNA in the presence of chemical substance/The level of expressed mRNA in the absence of chemical substance (yeast gene YPR023C): 0.8 | level of expressed mRNA in the presence of chemical substance / level in the absence of chemical substance (yeast gene YPR049C): 1.0 | level of expressed mRNA in the presence of chemical substance / level in the absence of chemical substance (yeast gene YPR146C): 0.9 | level of expressed mRNA in the presence of chemical substance / level in the absence of chemical substance (yeast gene YPR148C): 1.3 | The level of expressed mRNA in the presence of chemical substance/The level of expressed mRNA in the absence of chemical substance (yeast gene YPR151C): 4.1 | level of expressed mRNA in the presence of chemical substance / level in the absence of chemical substance (yeast gene YPR172W): 1.2

— patent US20100041089A1, “IMPROVED METHOD FOR DETECTING CHEMICAL […]” (priority 2006, published 2010)
